Biological target: USP30 (Homo sapiens (Human), UniProt Q70CQ3)
Assay: USP30 biochemical IC50 assay (fluorescence polarisation)
Details: enzyme and compound incubated 30 min at room temp; TAMRA labelled peptide-ubiquitin substrate 50 nM; read after 2 hr incubation; read-out: IC50 range
Method: USP30 Biochemical IC50 Assay
Dilution plates were prepared at 21 times the final concentration ([…] for a final concentration of 100 μM) in 50% DMSO in a 96-well polypropylene V-bottom plate (Greiner #651201). A typical 8-point dilution series to be 100, 30, 10, 3, 1, 0.3, 0.1, […].
Reactions were performed in duplicate in black 384 well plates (small volume, Greiner 784076) in a final reaction volume of 21 μl. Either 1 μl of 50% DMSO or diluted compound was added to the plate. USP30 was diluted in reaction buffer (40 mM Tris, pH 7.5, 0.005% Tween 20, 0.5 mg/ml BSA, 5 mM beta-mercaptoethanol) to the equivalent of 0.05 µl/well and 10 μl of diluted USP30 was added to the compound. Enzyme and compound were incubated for 30 min at room temp. Reactions were initiated by the addition of 50 nM of TAMRA labelled peptide linked to ubiquitin via an iso-peptide bond as fluorescence polarisation substrate. Reactions were read immediately after addition of substrate and following a 2 hr incubation at room temperature. Readings were performed on a Pherastar Plus (BMG Labtech). λ Excitation 540 nm; λ Emission 590 nm.

Chain of USP30 (Q70CQ3 57-517): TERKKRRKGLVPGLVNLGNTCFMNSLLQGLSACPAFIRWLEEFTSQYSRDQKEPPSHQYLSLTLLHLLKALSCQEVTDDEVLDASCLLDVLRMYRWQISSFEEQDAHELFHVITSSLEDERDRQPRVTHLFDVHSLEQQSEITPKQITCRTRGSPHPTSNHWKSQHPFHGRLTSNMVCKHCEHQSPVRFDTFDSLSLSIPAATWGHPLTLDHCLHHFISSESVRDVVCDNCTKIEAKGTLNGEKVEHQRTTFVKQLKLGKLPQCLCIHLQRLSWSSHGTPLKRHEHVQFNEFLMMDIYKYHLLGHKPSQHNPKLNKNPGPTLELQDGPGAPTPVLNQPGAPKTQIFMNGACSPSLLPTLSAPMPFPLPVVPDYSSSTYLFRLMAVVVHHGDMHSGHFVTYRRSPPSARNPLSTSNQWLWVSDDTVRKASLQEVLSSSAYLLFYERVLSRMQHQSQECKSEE

Compound | IC50
CN1CCN(C(=O)c2ccc(-c3ccc4c(c3)CCN4C(=O)C3(F)CCN(C#N)C3)cc2)CC1 (centres unmarked) [Example 38, 3-Fluoro-3-(5-(4-(4-methylpiperazine-1-carbonyl)phenyl)indoline-1-carbonyl)pyrrolidine-1-carbonitrile] | 1000 to 10000 nM
CCN(C(=O)[C@@H]1CCN(C#N)C1)c1ccc(-c2ccc(C#N)cc2)cn1 [Example 44, (R)-1-Cyano-N-(5-(4-cyanophenyl)pyridin-2-yl)-N-ethylpyrrolidine-3-carboxamide] | 1000 to 10000 nM
CN(Cc1nc2ccccc2s1)C(=O)C1CCN(C#N)C1 (centres unmarked) [Example 45, N-(Benzo[d]thiazol-2-ylmethyl)-1-cyano-N-methylpyrrolidine-3-carboxamide] | 1000 to 10000 nM
CN(Cc1cc(-c2ccccc2)no1)C(=O)C1CCN(C#N)C1 (centres unmarked) [Example 46, 1-Cyano-N-methyl-N-((3-phenylisoxazol-5-yl)methyl)pyrrolidine-3-carboxamide] | 1000 to 10000 nM
N#CN1CCC(C(=O)N2CCc3nc(-c4ccccc4)ccc32)C1 (centres unmarked) [Example 51, 3-(5-Phenyl-2,3-dihydro-1H-pyrrolo[3,2-b]pyridine-1-carbonyl)pyrrolidine-1-carbonitrile] | 1000 to 10000 nM
N#CN1CC[C@](F)(C(=O)N2CCc3cc(-c4ccccc4)ccc32)C1 [Example 54, (R)-3-Fluoro-3-(5-phenylindoline-1-carbonyl)pyrrolidine-1-carbonitrile] | 100 to 1000 nM
N#CN1CC[C@@](F)(C(=O)N2CCc3cc(-c4cccc(Cl)c4)cnc32)C1 [Example 55, (S)-3-(5-(3-Chlorophenyl)-2,3-dihydro-1H-pyrrolo[2,3-b]pyridine-1-carbonyl)-3-fluoropyrrolidine-1-carbonitrile] | 100 to 1000 nM
CC(C)Cn1nccc1-c1ccc2c(c1)CCN2C(=O)C1(F)CCN(C#N)C1 (centres unmarked) [Example 58, 3-Fluoro-3-(5-(1-isobutyl-1H-pyrazol-5-yl)indoline-1-carbonyl)pyrrolidine-1-carbonitrile] | 1000 to 10000 nM
N#CN1CCC(F)(C(=O)N2CCc3cc(-c4cnn(Cc5ccccc5)c4)ccc32)C1 (centres unmarked) [Example 59, 3-(5-(1-Benzyl-1H-pyrazol-4-yl)indoline-1-carbonyl)-3-fluoropyrrolidine-1-carbonitrile] | 1000 to 10000 nM
N#CN1CC[C@H](C(=O)N2CCc3cc(-c4cccc5[nH]ncc45)cnc32)C1 [Example 60, (S)-3-(5-(1H-indazol-4-yl)-2,3-dihydro-1H-pyrrolo[2,3-b]pyridine-1-carbonyl)-pyrrolidine-1-carbonitrile] | 100 to 1000 nM
N#CN1CC[C@@H](C(=O)N2CCc3cc(-c4cccc5[nH]ncc45)cnc32)C1 [Example 61, (R)-3-(5-(1H-Indazol-4-yl)-2,3-dihydro-1H-pyrrolo[2,3-b]pyridine-1-carbonyl)-pyrrolidine-1-carbonitrile] | 1000 to 10000 nM
N#CN1CCC(F)(C(=O)N2CCc3cc(-c4ccnn4Cc4ccccn4)ccc32)C1 (centres unmarked) [Example 62, 3-Fluoro-3-(5-(1-(pyridin-2-ylmethyl)-1H-pyrazol-5-yl)indoline-1-carbonyl)pyrrolidine-1-carbonitrile] | 1000 to 10000 nM
N#CN1CCC(F)(C(=O)N2CCc3cc(-c4ccnn4Cc4cccnc4)ccc32)C1 (centres unmarked) [Example 63, 3-Fluoro-3-(5-(1-(pyridin-3-ylmethyl)-H-pyrazol-5-yl)indoline-1-carbonyl)pyrrolidine-1-carbonitrile] | 1000 to 10000 nM
N#CN1CCC(F)(C(=O)N2CCc3cc(-c4ccnn4Cc4ccccc4Cl)ccc32)C1 (centres unmarked) [Example 64, 3-(5-(1-(2-Chlorobenzyl)-1H-pyrazol-5-yl)indoline-1-carbonyl)-3-fluoropyrrolidine-1-carbonitrile] | 1000 to 10000 nM
N#CN1CCC(F)(C(=O)N2CCc3cc(-c4ccnn4Cc4cccc(Cl)c4)ccc32)C1 (centres unmarked) [Example 65, 3-(5-(1-(3-Chlorobenzyl)-1H-pyrazol-5-yl)indoline-1-carbonyl)-3-fluoropyrrolidine-1-carbonitrile] | 100 to 1000 nM
N#CN1CCC(F)(C(=O)N2CCc3cc(-c4ccnn4Cc4ccc(Cl)cc4)ccc32)C1 (centres unmarked) [Example 66, 3-(5-(1-(4-Chlorobenzyl)-1H-pyrazol-5-yl)indoline-1-carbonyl)-3-fluoropyrrolidine-1-carbonitrile] | 100 to 1000 nM
N#CN1CCC(F)(C(=O)N2CCc3cc(C(=O)NCc4ccccc4)ccc32)C1 (centres unmarked) [Example 67, N-Benzyl-1-(1-cyano-3-fluoropyrrolidine-3-carbonyl)indoline-5-carboxamide] | 1000 to 10000 nM
CCc1cccc(-c2cc(C(=O)NC)cc3c2CCN3C(=O)[C@@H]2CCN(C#N)C2)c1 [Example 68, (R)-1-(1-Cyanopyrrolidine-3-carbonyl)-4-(3-ethylphenyl)-N-methylindoline-6-carboxamide] | 100 to 1000 nM
CNC(=O)c1cc(-c2ccccc2)c2c(c1)N(C(=O)[C@@H]1CCN(C#N)C1)CC2 [Example 69, (R)-1-(1-Cyanopyrrolidine-3-carbonyl)-N-methyl-4-phenylindoline-6-carboxamide] | 1000 to 10000 nM

Further lines, results first:

IC50 | Compound
100 to 1000 nM | Cn1ncc2cc(-c3ccc4c(c3)CCN4C(=O)C3(F)CCN(C#N)C3)ccc21 (centres unmarked) [Example 39, 3-Fluoro-3-(5-(1-methyl-1H-indazol-5-yl)indoline-1-carbonyl)pyrrolidine-1-carbonitrile]
< 100 nM | Cc1ccc(F)c(-c2ccc3c(c2)CCN3C(=O)C2(F)CCN(C#N)C2)c1 (centres unmarked) [Example 40, 3-Fluoro-3-(5-(2-fluoro-5-methylphenyl)indoline-1-carbonyl)pyrrolidine-1-carbonitrile]
100 to 1000 nM | Cc1ccc2[nH]ncc2c1-c1ccc2c(c1)CCN2C(=O)C1(F)CCN(C#N)C1 (centres unmarked) [Example 41, 3-Fluoro-3-(5-(5-methyl-1H-indazol-4-yl)indoline-1-carbonyl)pyrrolidine-1-carbonitrile]
100 to 1000 nM | N#CN1CCC(F)(C(=O)N2CCc3cc(-c4cccc(NS(=O)(=O)C5CC5)c4)ccc32)C1 (centres unmarked) [Example 42, N-(3-(1-(1-Cyano-3-fluoropyrrolidine-3-carbonyl)indolin-5-yl)phenyl)cyclopropanesulfonamide]
100 to 1000 nM | COc1ccc(-c2ccc3c(c2)CCN3C(=O)C2(F)CCN(C#N)C2)cn1 (centres unmarked) [Example 43, 3-Fluoro-3-(5-(6-methoxypyridin-3-yl)indoline-1-carbonyl)pyrrolidine-1-carbonitrile]
100 to 1000 nM | CN(Cc1csc(-c2ccccc2)n1)C(=O)C1CCN(C#N)C1 (centres unmarked) [Example 47, 1-Cyano-N-methyl-N-((2-phenylthiazol-4-yl)methyl)pyrrolidine-3-carboxamide]
100 to 1000 nM | N#CN1CCC2(CCN(c3cccc(-c4ccccc4)c3)C2=O)C1 (centres unmarked) [Example 49, 7-([1,1′-Biphenyl]-3-yl)-6-oxo-2,7-diazaspiro[4,4]nonane-2-carbonitrile]
100 to 1000 nM | CCc1cccc(-c2cccc3c2CCN3C(=O)[C@@H]2CCN(C#N)C2)c1 [Example 50, (R)-3-(4-(3-Ethylphenyl)indoline-1-carbonyl)pyrrolidine-1-carbonitrile]
100 to 1000 nM | N#CN1CC[C@@](F)(C(=O)N2CCc3cc(-c4ccccc4)ccc32)C1 [Example 53, (S)-3-Fluoro-3-(5-phenylindoline-1-carbonyl)pyrrolidine-1-carbonitrile]
< 100 nM | N#CN1CC[C@](F)(C(=O)N2CCc3cc(-c4cccc(Cl)c4)cnc32)C1 [Example 56, (R)-3-(5-(3-Chlorophenyl)-2,3-dihydro-1H-pyrrolo[2,3-b]pyridine-1-carbonyl)-3-fluoropyrrolidine-1-carbonitrile]
